# Experimental data reported in patent publication US9981972B2, “N-hydroxy bicyclic hydantoin carbamates as tools for identification of serine hydrolase targets” (ABIDE THERAPEUTICS, INC., priority 2014, dated 2018).
# Columns and labels:
# PPT1 [1] = biological target: T1, PPT1 (Homo sapiens, UniProt P50897); test: ABPP-SILAC, PC3 cells treated in situ, Compound 39 probe; assay type: cell-based; set-up: endogenous in cells; host or cells: PC3; conditions: 4 h in situ
# T1 sequence (P50897 28-306): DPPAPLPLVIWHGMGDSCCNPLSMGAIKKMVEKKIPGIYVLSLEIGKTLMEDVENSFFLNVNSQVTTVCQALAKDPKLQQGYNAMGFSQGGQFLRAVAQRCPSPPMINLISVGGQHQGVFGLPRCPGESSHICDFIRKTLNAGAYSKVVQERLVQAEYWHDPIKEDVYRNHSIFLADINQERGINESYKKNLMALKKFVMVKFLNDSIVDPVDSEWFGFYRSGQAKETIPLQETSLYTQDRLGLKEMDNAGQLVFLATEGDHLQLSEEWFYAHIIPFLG
# Method: (§1) In situ inhibitor treatments of human cell lines were performed as described previously (Hsu et al., J Med Chem 56, 8270-8279, 2012). Briefly, PC3 or transfected HEK293T cells were grown to confluency in serum-containing media (RPMI or DMEM, respectively). The culture media was then removed and replaced with fresh media containing DMSO or inhibitor at the desired concentration and incubated for 4 hours in a tissue culture incubator (37° C., 5% CO2). Cells were then washed with PBS, harvested, washed with PBS once more, and lysed with a probe sonicator.
# Isotopically heavy- and light-labeled PC3 cells were treated with Compound 37 (1 μM) or DMSO for 4 h, respectively, lysed, and then treated Compound 39 (5 μM, 1 h). […] Accordingly, PPT1 was not detected in our previous ABPP-SILAC studies with FP-biotin (see FIG. 9). […]
# To evaluate the broader selectivity of Compound 26 and Compound 34 across the SH class, heavy and light isotopically-labeled PC3 cells were treated with inhibitor [Compound 34 (1 μM); or Compound 26 (1 or 0.1 μM); 4 h) and DMSO, respectively, followed by ABPP-SILAC analysis with either the FP-biotin probe or the Compound 39 probe. […] Conversely, Compound 34 inhibited >90% of ABHD4 activity, as measured with either the FP-biotin probe or the Compound 39 probe, and cross-reacted with four additional targets—ABHD6, PAFAH2, PLA2G7, and PLA2G15.
# ABHD3 = biological target: T2, ABHD3 (Homo sapiens, UniProt Q8WU67); test: ABPP-SILAC, PC3 cells treated in situ; assay type: cell-based; conditions: 4 h in situ, FP-biotin
# T2 construct: endogenous in cells; host or cells: PC3
# T2 sequence (Q8WU67 whole entry): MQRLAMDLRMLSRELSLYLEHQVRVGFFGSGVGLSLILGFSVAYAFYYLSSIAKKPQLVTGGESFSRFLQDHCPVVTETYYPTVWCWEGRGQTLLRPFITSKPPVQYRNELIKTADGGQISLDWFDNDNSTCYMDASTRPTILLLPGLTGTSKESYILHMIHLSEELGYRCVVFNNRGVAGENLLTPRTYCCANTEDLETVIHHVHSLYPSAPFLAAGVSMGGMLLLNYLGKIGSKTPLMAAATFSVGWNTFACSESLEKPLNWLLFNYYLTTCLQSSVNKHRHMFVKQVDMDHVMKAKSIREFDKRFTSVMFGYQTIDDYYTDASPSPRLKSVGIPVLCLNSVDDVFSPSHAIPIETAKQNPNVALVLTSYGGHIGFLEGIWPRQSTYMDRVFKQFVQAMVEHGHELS
# Method: as §1
# The activity and selectivity of dual ABHD3/4 and ABHD4-preferring inhibitors in PC3 cells by ABPP-SILAC was assessed. Isotopically heavy and light PC3 cells were treated in situ with inhibitor (Compound 37 (1 μM) or Compound 38 (0.5 μM)) or DMSO for 4 h and then lysed and processed for ABPP-SILAC analysis.
# LYPLA1/2 = test: Inhibition by gel-based competitive ABPP in vivo (FP-Rh probe); set-up: species or system mouse
# Method: (§2) In this assay, test compounds were administered to mice. Mice were sacrificed, and their tissues harvested, homogenized, and the soluble fractions isolated, reacted with FP-Rh, and separated by SDS-PAGE as described above.
# (§3) Protocol Summary: Purpose-bred 3-4 month old male C57BL6 laboratory mice were i.p. administered test compound (0.5-50 mg/kg in 18:1:1 saline:PEG-40-castor oil:EtOH vehicle solution, 10 μL/g mouse weight) or vehicle only. After 4 hours, mice were humanely sacrificed (anesthetized with isoflurane followed by cervical dislocation), and tissues (liver, kidney, brain) removed and snap frozen in liquid nitrogen before processing. Tissues were homogenized, and soluble proteome isolated by ultracentrifugation (100 k×g, 45 minutes) and protein concentration adjusted to 1 mg/mL in DPBS. An aliquot (50 μL) was reacted with FP-Rh (2 μM final concentration) for 30 minutes at 25° C. Reactions were quenched with 16 μL 4×SDS-PAGE loading buffer (reducing), separated by SDS-PAGE, and visualized by in-gel fluorescent scanning. The percentage activity remaining was determined by measuring the integrated optical density of test compound bands relative to vehicle bands. Note: Due to the overlapping nature of LYPLA1 and LYPLA2 bands, the proteins were quantified together.
# (§4) The in vivo inhibitory activity of Compound 1 was assessed. For this experiment, mice were administered test compound (0.5-50 mg/kg, i.p.) or vehicle only. After four hours mice were sacrificed and their tissues removed, homogenized, and the soluble fractions isolated and labeled with FP-Rh followed by SDS-PAGE and fluorescent detection of FP-labeled SHs (see FIG. 3B).
# (§5) Compound 26, Compound 34, and Compound 1 were administered across a dose range of 1-40 mg/kg to C57BL6 mice by intraperitoneal injection, and, after 4 hours, animals were sacrificed and tissues harvested for analysis by gel-based ABPP using the FP-Rh probe and the Compound 39 probe.
# [2] = system: other SHs (anti-targets) in mouse tissues; test: Inhibition by gel-based competitive ABPP in vivo, other SHs; conditions: 4 h
# Method: as §2, §3, §4, §5
# PPT1 [3] = biological target: T3, PPT1 (Mus musculus, UniProt O88531); test: Inhibition by gel-based competitive ABPP in vivo (Compound 39 probe)
# T3 construct: from tissue; host or cells: central and peripheral tissues (e.g. brain, testis) of C57BL6 mice
# T3 sequence (O88531 28-306): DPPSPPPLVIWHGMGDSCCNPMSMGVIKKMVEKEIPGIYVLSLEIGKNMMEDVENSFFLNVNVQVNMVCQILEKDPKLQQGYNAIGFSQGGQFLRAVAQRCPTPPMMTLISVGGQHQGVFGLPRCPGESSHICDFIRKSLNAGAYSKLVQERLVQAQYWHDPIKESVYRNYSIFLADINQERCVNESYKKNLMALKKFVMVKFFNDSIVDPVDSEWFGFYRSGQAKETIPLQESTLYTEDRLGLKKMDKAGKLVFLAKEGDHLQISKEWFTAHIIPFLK
# Method: as §5
smiles,measurement,setting,value
"COc1ccc(N2CCN(C(=O)ON3C(=O)C4CN(Cc5ccc(Oc6ccccc6)cc5)CCN4C3=O)CC2)cc1 (stereo not shown) [Compound 37, 1,3-dioxo-7-(4-phenoxybenzyl)hexahydroimidazo[1,5-a]pyrazin-2(3H)-yl 4-(4-methoxyphenyl)piperazine-1-carboxylate]",inhibition at 1 µM,"PPT1 [1]; PC-3, 1 μM, Compound 39 probe (5 μM, 1 h)",> 90%
same,inhibition at 1 µM,"ABHD3; PC-3, 1 μM",~80%
"O=C(ON1C(=O)C2CN(Cc3ccc(Oc4ccccc4)cc3)CCN2C1=O)N1CCC(c2ccccc2)CC1 (stereo not shown) [Compound 38, 1,3-dioxo-7-(4-phenoxybenzyl)hexahydroimidazo[1,5-a]pyrazin-2(3H)-yl 4-phenylpiperidine-1-carboxylate]",inhibition of ABHD3 in PC3 cells,ABHD3; 0.5 μM,inhibit both ABHD3 and ABHD4
"COc1ccc(N2CCN(C(=O)ON3C(=O)C4CN(CC5CCN(Cc6ccccc6)CC5)CCN4C3=O)CC2)cc1 (stereo not shown) [Compound 26, 7-((1-benzylpiperidin-4-yl)methyl)-1,3-dioxohexahydroimidazo[1,5-a]pyrazin-2(3H)-yl 4-(4-methoxyphenyl)piperazine-1-carboxylate]",inhibition of PPT1 in PC3 cells,"PPT1 [1]; 1 or 0.1 μM, Compound 39 probe",~90%
same,"mLYPLA1/2 (in vivo), % @ 40 mg/kg (testis)","LYPLA1/2; 40 mg/kg, testis, mouse",0% @
same,inhibition of other SHs in vivo,"[2]; 1-40 mg/kg i.p., brain and testis, FP-Rh or Compound 39 probe",did not inhibit other SHs
same,"mPPT1 (in vivo), % @ 5 mg/kg (testis)","PPT1 [3]; 5 mg/kg, testis, mouse",100% @ 5 mg/kg
same,blockade of PPT1 in vivo,"PPT1 [3]; 1-5 mg/kg i.p., 4 h, central and peripheral tissues",near-complete blockade
"O=C(ON1C(=O)C2CN(C(=O)N3CCOCC3)CCN2C1=O)N1CCC(CCc2ccc(Cl)cc2)CC1 (stereo not shown) [Compound 1, 7-(morpholine-4-carbonyl)-1,3-dioxohexahydroimidazo[1,5-a]pyrazin-2(3H)-yl 4-(4-chloro-phenethyl)piperidine-1-carboxylate]",blockade of LYPLA1 and LYPLA2 in vivo,"LYPLA1/2; 5 mg/kg i.p., 4 h, FP-Rh probe","near-complete blockade of LYPLA1 and LYPLA2 in peripheral (e.g., liver, kidney), but not central (brain) tissues"
same,"mLYPLA1/2 (in vivo), % @ 5 mg/kg (liver and kidney)","LYPLA1/2; 5 mg/kg, liver and kidney, mouse",100% @
same,inhibition of LYPLA1/2 in liver and kidney,"LYPLA1/2; 0.5-50 mg/kg i.p., 4 h, liver and kidney",~90%
same,inhibition of LYPLA1/2 in the brain,"LYPLA1/2; highest dose 50 mg/kg i.p., 4 h, brain",~75%
same,anti-target inhibition in vivo,"[2]; 0.5-50 mg/kg i.p., any tissue, ABHD6 not visible",no significant anti-target inhibition
same,cross-reactivity with other SHs in vivo,[2]; 1-40 mg/kg i.p.,limited cross-reactivity with other SHs
same,"mPPT1 (in vivo), % @ 10 mg/kg (testis)","PPT1 [3]; 10 mg/kg, testis, mouse",100% @ 10 mg/kg
same,dose inhibiting PPT1 in vivo,"PPT1 [3]; i.p., 4 h, Compound 39 probe",≥ 10 mg/kg
